Source: patent publication US6506607B1, “Methods and compositions for the identification and assessment of prostate cancer therapies and the diagnosis of prostate cancer” (Millennium Pharmaceuticals, Inc., priority 1997, dated 2003)

System: LNCaP cells
Test: Gene expression in bicalutamide-treated vs untreated LNCaP cells (subtraction library, Gene Expression Micro-Array)
Format: cell-based
Conditions: 25 hours

Structure (SMILES): CC(O)(CS(=O)(=O)c1ccc(F)cc1)C(=O)Nc1ccc(C#N)c(C(F)(F)F)c1 (centres unmarked) [bicalutamide, Bicalutamide]
- FOLD INCREASE IN mRNA: HU-K4 {470677} (SEQ ID NO 145, 100 nM bicalutamide): 3.6 fold
- FOLD INCREASE IN mRNA: ESTs {126530} (SEQ ID NO 146, 100 nM bicalutamide): 3.5 fold
- FOLD INCREASE IN mRNA: ESTs {429327} (SEQ ID NO 147, 100 nM bicalutamide): 3.5 fold
- FOLD INCREASE IN mRNA: Vascular endothelial growth factor (VEGF (165)) {488697} (SEQ ID NO 148, 100 nM bicalutamide): 3.2 fold
- FOLD INCREASE IN mRNA: ESTs {50914} (SEQ ID NO 149, 100 nM bicalutamide): 3.1 fold
- FOLD INCREASE IN mRNA: ESTs {279847} (SEQ ID NO 150, 100 nM bicalutamide): 3.1 fold
- FOLD INCREASE IN mRNA: ESTs {361548} (SEQ ID NO 151, 100 nM bicalutamide): 3.1 fold
- FOLD INCREASE IN mRNA: ESTs {364730} (SEQ ID NO 152, 100 nM bicalutamide): 3.1 fold
- FOLD INCREASE IN mRNA: ESTs {470212} (SEQ ID NO 153, 100 nM bicalutamide): 3.1 fold
- FOLD INCREASE IN mRNA: ESTs {471210} (SEQ ID NO 154, 100 nM bicalutamide): 3.1 fold
- FOLD INCREASE IN mRNA: ESTs {289300} (SEQ ID NO 155, 100 nM bicalutamide): 3 fold
- FOLD INCREASE IN mRNA: ESTs {427725} (SEQ ID NO 156, 100 nM bicalutamide): 3 fold
- FOLD INCREASE IN mRNA: ESTs {428217} (SEQ ID NO 157, 100 nM bicalutamide): 2.9 fold
- FOLD INCREASE IN mRNA: rfp transforming protein {485268} (SEQ ID NO 158, 100 nM bicalutamide): 2.8 fold
- FOLD INCREASE IN mRNA: ESTs {487420} (SEQ ID NO 159, 100 nM bicalutamide): 2.8 fold
- FOLD INCREASE IN mRNA: 60S RIBOSOMAL PROTEIN L18A {509699} (SEQ ID NO 160, 100 nM bicalutamide): 2.8 fold
- FOLD INCREASE IN mRNA: ESTs {31943} (SEQ ID NO 161, 100 nM bicalutamide): 2.7 fold
- FOLD INCREASE IN mRNA: ESTs {376271} (SEQ ID NO 162, 100 nM bicalutamide): 2.7 fold
- FOLD INCREASE IN mRNA: ESTs {469642} (SEQ ID NO 163, 100 nM bicalutamide): 2.7 fold
- FOLD INCREASE IN mRNA: ESTs {471826} (SEQ ID NO 164, 100 nM bicalutamide): 2.7 fold
- FOLD INCREASE IN mRNA: KIAA0262 {485008} (SEQ ID NO 165, 100 nM bicalutamide): 2.7 fold
- FOLD INCREASE IN mRNA: ESTs {292082} (SEQ ID NO 166, 100 nM bicalutamide): 2.6 fold
- FOLD INCREASE IN mRNA: ESTs {365557} (SEQ ID NO 167, 100 nM bicalutamide): 2.6 fold
- FOLD INCREASE IN mRNA: Immunogloblin light chain (lambda) {119218} (SEQ ID NO 168, 100 nM bicalutamide): 2.5 fold
- FOLD INCREASE IN mRNA: ELP-1 {147979} (SEQ ID NO 169, 100 nM bicalutamide): 2.5 fold
- FOLD INCREASE IN mRNA: TRAMP protein {149355} (SEQ ID NO 170, 100 nM bicalutamide): 2.5 fold
- FOLD INCREASE IN mRNA: ESTs {294078} (SEQ ID NO 171, 100 nM bicalutamide): 2.5 fold
- FOLD INCREASE IN mRNA: ESTs {291005} (SEQ ID NO 172, 100 nM bicalutamide): 2.5 fold
- FOLD INCREASE IN mRNA: ESTs {365907} (SEQ ID NO 173, 100 nM bicalutamide): 2.5 fold
- FOLD INCREASE IN mRNA: ESTs {427801} (SEQ ID NO 174, 100 nM bicalutamide): 2.5 fold
- FOLD INCREASE IN mRNA: ESTs {469515} (SEQ ID NO 175, 100 nM bicalutamide): 2.5 fold
- FOLD INCREASE IN mRNA: Tral mRNA for human homologue of murine tumor rejection antigen gp96 {509486} (SEQ ID NO 176, 100 nM bicalutamide): 2.5 fold
- FOLD INCREASE IN mRNA: Biotin-[propionyl-CoA-carboxylase (ATP-hydrolysing)] {176590} (SEQ ID NO 177, 100 nM bicalutamide): 2.4 fold
- FOLD INCREASE IN mRNA: Tral mRNA for human homologue of murine tumor rejection antigen gp96 {242829} (SEQ ID NO 178, 100 nM bicalutamide): 2.4 fold
- FOLD INCREASE IN mRNA: Cancellous bone osteoblast mRNA for GS3786 {486005} (SEQ ID NO 179, 100 nM bicalutamide): 2.4 fold
- FOLD INCREASE IN mRNA: ESTs {509583} (SEQ ID NO 180, 100 nM bicalutamide): 2.4 fold
- FOLD INCREASE IN mRNA: ESTs {44551} (SEQ ID NO 181, 100 nM bicalutamide): 2.3 fold
- FOLD INCREASE IN mRNA: ESTs {245853} (SEQ ID NO 182, 100 nM bicalutamide): 2.3 fold
- FOLD INCREASE IN mRNA: ESTs {306075} (SEQ ID NO 183, 100 nM bicalutamide): 2.3 fold
- FOLD INCREASE IN mRNA: ESTs {322143} (SEQ ID NO 184, 100 nM bicalutamide): 2.3 fold
- FOLD INCREASE IN mRNA: ESTs {322749} (SEQ ID NO 185, 100 nM bicalutamide): 2.3 fold
- FOLD INCREASE IN mRNA: ESTs {359877} (SEQ ID NO 186, 100 nM bicalutamide): 2.3 fold
- FOLD INCREASE IN mRNA: ESTs {360446} (SEQ ID NO 187, 100 nM bicalutamide): 2.3 fold
- FOLD INCREASE IN mRNA: ESTs {360789} (SEQ ID NO 188, 100 nM bicalutamide): 2.3 fold
- FOLD INCREASE IN mRNA: Protein tyrosine kinase t-Rorl {418257} (SEQ ID NO 189, 100 nM bicalutamide): 2.3 fold
- FOLD INCREASE IN mRNA: ESTs {486712} (SEQ ID NO 190, 100 nM bicalutamide): 2.3 fold
- FOLD INCREASE IN mRNA: ESTs {489106} (SEQ ID NO 191, 100 nM bicalutamide): 2.3 fold
